From patent US20060154243A1 (priority 2003, published 2006)

Key:
Format in all cases: binding, human
[1] = system: serum 1b (individual 1, late serum)
serum 62 (individual 62) = system: serum 62 (individual 62)
serum 37 (individual 37) = system: serum 37 (individual 37)
[2] = system: control serum Blood-bank (commercial negative donor pooled serum)
[3] = system: control serum LUMC (pooled serum of ten healthy hospital workers)
serum London = system: serum London
serum SARS-yellow = system: serum SARS-yellow
serum SARS-green = system: serum SARS-green
serum 6 (individual 6) = system: serum 6 (individual 6)
serum 2 (individual 2) = system: serum 2 (individual 2)
[4] = system: serum 1a (individual 1, early serum)

Sequence | Binding of serum 1b to linear peptides of Orf14 of SARS-CoV TOR2 [1] | Binding of serum 62 to linear peptides of Orf14 of SARS-CoV TOR2 (serum 62 (individual 62)) | Binding of serum 37 to linear peptides of Orf14 of SARS-CoV TOR2 (serum 37 (individual 37)) | Control Serum Blood-Bank Looped peptides [2] | Control serum Blood-bank linear peptides [2] | Control serum LUMC linear peptides [3] | Control serum LUMC looped peptides [3] | Binding of serum London to linear peptides of Orf14 of SARS-CoV TOR2 (serum London) | Binding of serum SARS-yellow to linear peptides of Orf14 of SARS-CoV TOR2 (serum SARS-yellow) | Binding of serum SARS-green to linear peptides of Orf14 of SARS-CoV TOR2 (serum SARS-green) | Binding of serum 6 to linear peptides of Orf14 of SARS-CoV TOR2 (serum 6 (individual 6)) | Binding of serum 2 to linear peptides of Orf14 of SARS-CoV TOR2 (serum 2 (individual 2)) | Binding of serum 1a to linear peptides of Orf14 of SARS-CoV TOR2 [4]
LAAVGEILLLEWLAE | 0.5 | 0.5 | 0.7 | 0.7 | 0.4 | 0.6 | 0.7 | 0.6 | 0.6 | 0.5 | 0.5 | 0.5 | 0.6
AAVGEILLLEWLAEV | 0.5 | 0.6 | 0.8 | 0.7 | 0.4 | 0.6 | 0.7 | 0.6 | 0.6 | 0.5 | 0.5 | 0.6 | 0.6
AVGEILLLEWLAEVV | 0.5 | 0.6 | 0.7 | 0.8 | 0.5 | 0.8 | 0.8 | 0.6 | 0.5 | 0.3 | 0.5 | 0.5 | 0.6
APHHVVAVIQEIQLL | 0.4 | 0.3 | 0.5 | 0.6 | 0.3 | 0.6 | 0.5 | 0.3 | 0.3 | 0.1 | 0.4 | 0.4 | 0.5
EAEAAVKPLLAPHHV | 0.3 | 0.4 | 0.5 | 0.7 | 0.4 | 0.4 | 0.6 | 0.6 | 0.2 | 0.4 | 0.4 | 0.7 | 0.5
LLAAVGEILLLEWLA | 0.4 | 0.4 | 0.6 | 0.6 | 0.5 | 0.6 | 0.6 | 0.4 | 0.4 | 0.1 | 0.4 | 0.4 | 0.5
EWLAEVVKLPSRYCC | 0.6 | 0.7 | 1.0 | 0.7 | 0.7 | 0.6 | 0.6 | 1.0 | 0.3 | 0.6 | 0.6 | 0.7 | 0.8
TQREAEAAVKPLLAP | 0.2 | 0.3 | 0.4 | 0.8 | 0.4 | 0.4 | 0.7 | 0.4 | 0.2 | 0.3 | 0.4 | 0.4 | 0.4
QLLAAVGEILLLEWL | 0.4 | 0.4 | 0.6 | 0.6 | 0.4 | 0.6 | 0.5 | 0.4 | 0.4 | 0.1 | 0.3 | 0.4 | 0.5
GEILLLEWLAEVVKL | 0.4 | 0.5 | 0.6 | 0.5 | 0.6 | 0.5 | 0.5 | 0.6 | 0.3 | 0.3 | 0.5 | 0.4 | 0.5
EIQLLAAVGEILLLE | 0.5 | 0.4 | 0.6 | 0.7 | 0.4 | 0.8 | 0.7 | 0.4 | 0.5 | 0.3 | 0.4 | 0.5 | 0.6
VGEILLLEWLAEVVK | 0.4 | 0.4 | 0.6 | 0.7 | 0.5 | 0.6 | 0.8 | 0.5 | 0.4 | 0.2 | 0.5 | 0.4 | 0.5
VVAVIQEIQLLAAVG | 0.7 | 0.8 | 0.6 | 0.5 | 1.1 | 1.1 | 0.4 | 1.0 | 0.4 | 0.5 | 1.3 | 0.7 | 0.8
VAVIQEIQLLAAVGE | 0.4 | 0.3 | 0.5 | 0.6 | 0.3 | 0.3 | 0.6 | 0.3 | 0.2 | 0.3 | 0.4 | 0.3 | 0.5
